Results as given in US9566312B2, “Cyclic peptides and use as medicines” (priority 2012, dated 2017).
Starred links: 1 amine or outer side, 2 acyl side, 3 side chain; linkers in the order of their positions; H or OH if unused. Non-standard residues stand in square brackets, D forms with d. Residues, ends and D or L forms follow the SMILES beside them. X37 = C[C@H](CN1CCC(S(C)(=O)=O)CC1)[C@@H](C(=O)[*:2])N(C)[*:1]; X54 = CCOC(=O)N1CCN(C[C@@H](C)[C@@H](C(=O)[*:2])N(C)[*:1])CC1; X56 = CCN1CCN(C(=O)OC[C@@H](C)[C@@H](C(=O)[*:2])N(C)[*:1])CC1; X73 = CO[C@H]1CCN(CCOC[C@@H](C)[C@@H](C(=O)[*:2])N(C)[*:1])C1; X28 = CCN1CCN(C(=O)OC[C@H](C)[C@@H](C(=O)[*:2])N(C)[*:1])CC1; X33 = CC(C)N1CCOC(COC[C@@H](C)[C@@H](C(=O)[*:2])N(C)[*:1])C1; X38 = C[C@@H](CN1CCN2C(=O)OCC2C1)[C@@H](C(=O)[*:2])N(C)[*:1]; X41 = CC(C)N1CCN(C[C@@H](C)[C@@H](C(=O)[*:2])N(C)[*:1])CC1; X55 = C[C@H](CN(C)CC(=O)N(C)C)[C@@H](C(=O)[*:2])N(C)[*:1]; X67 = C[C@H](CCN1CCOC[C@@H]1C)[C@@H](C(=O)[*:2])N(C)[*:1]; MeBmt = C/C=C/C[C@@H](C)[C@@H](O)[C@H](NC)C(=O)O; NMeL = CN[C@@H](CC(C)C)C(=O)O; NMeV = CN[C@H](C(=O)O)C(C)C; dNMeA = CN[C@H](C)C(=O)O; Abu = CC[C@H](N)C(=O)O

Tests used:
[1] = molecular target: cyclophilin A (CypA) (Homo sapiens (Human), UniProt P62937); assay: Inhibitor binding to cyclophilin proteins by SPR, CypA; parameters: unit not given here; details: 1:1 binding model;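 further: Single-cycle kinetics on a Biacore T200, compound injected at several concentrations for 1 min each at 50 µL/min, then 10 min dissociation, in HEPES pH 7.4 buffer with 3% DMSO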
Chain of cyclophilin A (CypA) (P62937 whole entry): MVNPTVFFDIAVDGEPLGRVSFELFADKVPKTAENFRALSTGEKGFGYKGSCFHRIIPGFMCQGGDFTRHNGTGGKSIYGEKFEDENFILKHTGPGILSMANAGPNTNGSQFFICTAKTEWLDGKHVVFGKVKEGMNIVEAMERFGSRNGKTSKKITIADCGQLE

[2] = molecular target: cyclophilin B (CypB) (Homo sapiens (Human), UniProt P23284); assay: Inhibitor binding to cyclophilin proteins by SPR, CypB; parameters: unit not given here; details: 1:1 binding model
Chain of cyclophilin B (CypB) (P23284 34-216): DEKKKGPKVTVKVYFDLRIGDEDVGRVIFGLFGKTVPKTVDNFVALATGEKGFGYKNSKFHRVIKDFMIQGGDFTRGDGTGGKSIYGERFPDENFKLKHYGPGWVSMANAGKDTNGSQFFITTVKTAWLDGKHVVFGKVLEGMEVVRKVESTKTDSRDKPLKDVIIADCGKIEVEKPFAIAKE
Summary of the method: (§1)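 Mono-biotinylated avi-tagged cyclophilins were captured on a Biotin CAPture chip and compound injected by single-cycle kinetics in 10 mM HEPES pH 7.4, 150 mM NaCl, 0.05% P20, 3% DMSO. Contact 1 min per concentration at 50 μL/min, 10 min final dissociation; 1:1 model fit gave kon, koff, KD.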

[3] = molecular target: CypF (Homo sapiens (Human), UniProt P30405); assay: Inhibitor binding to cyclophilin proteins by SPR, CypF; details: 1:1 binding model
Chain of CypF (P30405 30-207): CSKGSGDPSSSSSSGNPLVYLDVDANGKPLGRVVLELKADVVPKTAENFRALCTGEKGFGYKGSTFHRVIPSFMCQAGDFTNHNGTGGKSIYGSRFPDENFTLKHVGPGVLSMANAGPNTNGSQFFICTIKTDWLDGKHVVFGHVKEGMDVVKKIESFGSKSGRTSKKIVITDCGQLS
Summary of the method: as §1

[4] = system: genotype 1b subgenomic HCV replicon in Huh7.5 cells; type: cell-based, hepatitis C virus; details: genotype 1b replicon, 72 h incubation; read-out: RPLN-1b IC50
Summary of the method: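 Replicon inhibition read as renilla luciferase signal versus DMSO controls after 72 h incubation, in Huh7.5 cells harbouring a genotype 1b subgenomic replicon; medium phenol red-free DMEM lacking G418. CC50 determined in parallel via Cell Titer-Glo.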

[5] = system: peripheral blood mononuclear cells (PBMC); assay: Anti-proliferative or immunosuppressive activity, BrdU incorporation in PHA-stimulated PBMC; type: cell-based; details: PHA 3 μg/ml, 60 hour compound treatment; read-out: EMV PBMC IC50
Summary of the method: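 BrdU ELISA read-out of DNA synthesis in freshly isolated PBMCs (two donors, 30,000 cells/well, X-VIVO 15). T-cell proliferation triggered with phytohemagglutinin at 3 μg/ml.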

[6] = molecular target: organic anion transporting polypeptide 1B1 (OATP1B1) (Homo sapiens (Human), UniProt Q9Y6L6); assay: OATP assay in CHO-OATP1B1 cells;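 further: inhibition of probe substrate uptake into the cells, ten minutes exposure, accumulated substrate read by fluorescence once cells were lysed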
Chain of organic anion transporting polypeptide 1B1 (OATP1B1) (Q9Y6L6 whole entry): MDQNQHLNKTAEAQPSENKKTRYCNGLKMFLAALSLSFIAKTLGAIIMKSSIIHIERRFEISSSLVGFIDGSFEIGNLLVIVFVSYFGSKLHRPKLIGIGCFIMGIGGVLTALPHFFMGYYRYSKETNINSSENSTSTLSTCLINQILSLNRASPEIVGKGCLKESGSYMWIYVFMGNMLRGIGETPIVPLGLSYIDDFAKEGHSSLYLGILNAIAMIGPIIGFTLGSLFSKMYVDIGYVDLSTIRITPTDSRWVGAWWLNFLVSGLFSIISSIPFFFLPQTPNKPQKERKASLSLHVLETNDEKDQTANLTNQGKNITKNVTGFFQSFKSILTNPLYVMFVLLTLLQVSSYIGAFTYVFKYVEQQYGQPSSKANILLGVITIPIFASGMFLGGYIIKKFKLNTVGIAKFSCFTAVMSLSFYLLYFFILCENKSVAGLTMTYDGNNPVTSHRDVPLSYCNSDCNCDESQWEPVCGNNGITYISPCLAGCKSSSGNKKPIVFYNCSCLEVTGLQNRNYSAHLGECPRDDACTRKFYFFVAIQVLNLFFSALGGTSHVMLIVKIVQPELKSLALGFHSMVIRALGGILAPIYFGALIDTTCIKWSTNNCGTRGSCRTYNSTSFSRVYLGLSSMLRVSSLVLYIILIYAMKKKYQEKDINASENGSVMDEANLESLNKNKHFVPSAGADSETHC

Structure (SMILES)	CypA Kd [1]	CypB Kd [2]	CypF Kd [3] [nM]	IC50 [4] [nM]	IC50 [5] [nM]	IC50 [6] [nM]
C/C=C/C[C@@H](C)[C@@H](O)[C@H]1C(=O)N[C@@H](CC)C(=O)N(C)[C@H](C)C(=O)N(C)[C@@H]([C@H](C)CCN2CCOC[C@@H]2C)C(=O)N[C@@H](C(C)C)C(=O)N(C)[C@@H](CC(C)C)C(=O)N[C@@H](C)C(=O)N[C@H](C)C(=O)N(C)[C@@H](CC(C)C)C(=O)N(C)[C@@H](CC(C)C)C(=O)N(C)[C@@H](C(C)C)C(=O)N1C [Compound 2.18.4] (cyclo(A[dA][NMeL][NMeL][NMeV][MeBmt][Abu][dNMeA][X67]V[NMeL]))	1.2	0.7	0.7	44	10600	1700
C/C=C/C[C@@H](C)[C@@H](O)[C@H]1C(=O)N[C@@H](CC)C(=O)N(C)[C@H](C)C(=O)N(C)[C@@H]([C@H](C)COCCN2CC[C@H](OC)C2)C(=O)N[C@@H](C(C)C)C(=O)N(C)[C@@H](CC(C)C)C(=O)N[C@@H](C)C(=O)N[C@H](C)C(=O)N(C)[C@@H](CC(C)C)C(=O)N(C)[C@@H](CC(C)C)C(=O)N(C)[C@@H](C(C)C)C(=O)N1C [Compound 2.8.7, 3-[D-Ala]-4-[(2S,3S)-4-(2-((S)-3-methoxypyrrolidin-1-yl)ethoxy)-3-methyl-2-(methylamino)butanoyl]-cyclosporin] (cyclo(A[dA][NMeL][NMeL][NMeV][MeBmt][Abu][dNMeA][X73]V[NMeL]))	0.6	0.4	0.3	45	6800	5000
C/C=C/C[C@@H](C)[C@@H](O)[C@H]1C(=O)N[C@@H](CC)C(=O)N(C)[C@H](C)C(=O)N(C)[C@@H]([C@@H](C)COC(=O)N2CCN(CC)CC2)C(=O)N[C@@H](C(C)C)C(=O)N(C)[C@@H](CC(C)C)C(=O)N[C@@H](C)C(=O)N[C@H](C)C(=O)N(C)[C@@H](CC(C)C)C(=O)N(C)[C@@H](CC(C)C)C(=O)N(C)[C@@H](C(C)C)C(=O)N1C [Compound 2.17.14, 3-[D-Ala]-4-[(2S,3R)-4-((4-ethylpiperazine-1-carbonyl)oxy)-3-methyl-2-(methylamino)butanoyl]-cyclosporin] (cyclo(A[dA][NMeL][NMeL][NMeV][MeBmt][Abu][dNMeA][X28]V[NMeL]))	0.5	0.4	0.5	57	8100	2200
C/C=C/C[C@@H](C)[C@@H](O)[C@H]1C(=O)N[C@@H](CC)C(=O)N(C)[C@H](C)C(=O)N(C)[C@@H]([C@H](C)CN2CCC(S(C)(=O)=O)CC2)C(=O)N[C@@H](C(C)C)C(=O)N(C)[C@@H](CC(C)C)C(=O)N[C@@H](C)C(=O)N[C@H](C)C(=O)N(C)[C@@H](CC(C)C)C(=O)N(C)[C@@H](CC(C)C)C(=O)N(C)[C@@H](C(C)C)C(=O)N1C [Compound 2.5.20, 3-[D-Ala]-4-[(2S,3R)-3-methyl-2-(methylamino)-4-(4-(methylsulfonyl)piperidin-1-yl)butanoyl]-cyclosporin] (cyclo(A[dA][NMeL][NMeL][NMeV][MeBmt][Abu][dNMeA][X37]V[NMeL]))	3.7	1.2	1.6	109	29200	1800
C/C=C/C[C@@H](C)[C@@H](O)[C@H]1C(=O)N[C@@H](CC)C(=O)N(C)[C@H](C)C(=O)N(C)[C@@H]([C@H](C)CN2CCN(C(C)C)CC2)C(=O)N[C@@H](C(C)C)C(=O)N(C)[C@@H](CC(C)C)C(=O)N[C@@H](C)C(=O)N[C@H](C)C(=O)N(C)[C@@H](CC(C)C)C(=O)N(C)[C@@H](CC(C)C)C(=O)N(C)[C@@H](C(C)C)C(=O)N1C [Compound 2.5.12, 3-[D-Ala]-4[(2S,3R)-2-Amino-4-(4-isopropyl-piperazin-1-yl)-butanoyl]-cyclosporin] (cyclo(A[dA][NMeL][NMeL][NMeV][MeBmt][Abu][dNMeA][X41]V[NMeL]))	1.0	0.7	0.4	44	3100	2440
C/C=C/C[C@@H](C)[C@@H](O)[C@H]1C(=O)N[C@@H](CC)C(=O)N(C)[C@H](C)C(=O)N(C)[C@@H]([C@H](C)CN2CCN(C(=O)OCC)CC2)C(=O)N[C@@H](C(C)C)C(=O)N(C)[C@@H](CC(C)C)C(=O)N[C@@H](C)C(=O)N[C@H](C)C(=O)N(C)[C@@H](CC(C)C)C(=O)N(C)[C@@H](CC(C)C)C(=O)N(C)[C@@H](C(C)C)C(=O)N1C [Compound 2.5.31, 3-[D-Ala]-4-[(2S,3R)-4-(4-(ethoxycarbonyl)piperazin-1-yl)-3-methyl-2-(methylamino)butanoyl]-cyclosporin] (cyclo(A[dA][NMeL][NMeL][NMeV][MeBmt][Abu][dNMeA][X54]V[NMeL]))	2.5	1.1	1.3	55	18900	2100
C/C=C/C[C@@H](C)[C@@H](O)[C@H]1C(=O)N[C@@H](CC)C(=O)N(C)[C@H](C)C(=O)N(C)[C@@H]([C@H](C)COC(=O)N2CCN(CC)CC2)C(=O)N[C@@H](C(C)C)C(=O)N(C)[C@@H](CC(C)C)C(=O)N[C@@H](C)C(=O)N[C@H](C)C(=O)N(C)[C@@H](CC(C)C)C(=O)N(C)[C@@H](CC(C)C)C(=O)N(C)[C@@H](C(C)C)C(=O)N1C [Compound 2.5.24, 3-[D-Ala]-4-[(2S,3S)-4-((4-ethylpiperazine-1-carbonyl)oxy)-3-methyl-2-(methylamino)butanoyl]-cyclosporin] (cyclo(A[dA][NMeL][NMeL][NMeV][MeBmt][Abu][dNMeA][X56]V[NMeL]))	0.5	0.3	0.3	23	3600	1900
C/C=C/C[C@@H](C)[C@@H](O)[C@H]1C(=O)N[C@@H](CC)C(=O)N(C)[C@H](C)C(=O)N(C)[C@@H]([C@H](C)CN(C)CC(=O)N(C)C)C(=O)N[C@@H](C(C)C)C(=O)N(C)[C@@H](CC(C)C)C(=O)N[C@@H](C)C(=O)N[C@H](C)C(=O)N(C)[C@@H](CC(C)C)C(=O)N(C)[C@@H](CC(C)C)C(=O)N(C)[C@@H](C(C)C)C(=O)N1C [Compound 2.5.27, 3-[D-Ala]-4-[(2S,3R)-4-((2-(dimethylamino)-2-oxoethyl)(methyl)amino)-3-methyl-2-(methylamino)butanoyl]-cyclosporin] (cyclo(A[dA][NMeL][NMeL][NMeV][MeBmt][Abu][dNMeA][X55]V[NMeL]))	1.4	0.8	0.8	26	14800	2700
C/C=C/C[C@@H](C)[C@@H](O)[C@H]1C(=O)N[C@@H](CC)C(=O)N(C)[C@H](C)C(=O)N(C)[C@@H]([C@@H](C)CN2CCN3C(=O)OCC3C2)C(=O)N[C@@H](C(C)C)C(=O)N(C)[C@@H](CC(C)C)C(=O)N[C@@H](C)C(=O)N[C@H](C)C(=O)N(C)[C@@H](CC(C)C)C(=O)N(C)[C@@H](CC(C)C)C(=O)N(C)[C@@H](C(C)C)C(=O)N1C (stereo partly drawn) [Compound 2.17.10, 3-[D-Ala]-4-[(2S,3S)-3-methyl-2-(methylamino)-4-((S)-3-oxotetrahydro-1H-oxazolo[3,4-a]pyrazin-7(3H)-yl)butanoyl]-cyclosporin] (cyclo(A[dA][NMeL][NMeL][NMeV][MeBmt][Abu][dNMeA][X38]V[NMeL]))	0.6	0.5	0.4	31	15000	1400
C/C=C/C[C@@H](C)[C@@H](O)[C@H]1C(=O)N[C@@H](CC)C(=O)N(C)[C@H](C)C(=O)N(C)[C@@H]([C@H](C)COCC2CN(C(C)C)CCO2)C(=O)N[C@@H](C(C)C)C(=O)N(C)[C@@H](CC(C)C)C(=O)N[C@@H](C)C(=O)N[C@H](C)C(=O)N(C)[C@@H](CC(C)C)C(=O)N(C)[C@@H](CC(C)C)C(=O)N(C)[C@@H](C(C)C)C(=O)N1C (stereo partly drawn) [Compound 2.20.2, 3-[D-Ala]-4-[(2S,3S)-4-(((S)-4-isopropylmorpholin-2-yl)methoxy)-3-methyl-2-(methylamino)butanoyl]-cyclosporin] (cyclo(A[dA][NMeL][NMeL][NMeV][MeBmt][Abu][dNMeA][X33]V[NMeL]))	0.6	0.5	0.3	44	6400	4300
